Source: publication PMC4621507, “Characterization of 2,4-Diamino-6-oxo-1,6-dihydropyrimidin-5-yl Ureido Based Inhibitors of Trypanosoma brucei FolD and Testing for Antiparasitic Activity” (Journal of Medicinal Chemistry, 2015)
Values joined by “and” are separate entries in the source; they are usually repeats but may differ in a detail not shown here. Equal values may be shown once.

Columns and labels:
TbFolD = test: FolD dehydrogenase enzyme inhibition assay; type: biochemical, Trypanosoma brucei; conditions: for FolD inhibition IC50 / FolD inhibition Ki: recombinant TbFolD, dehydrogenase activity; for FolD inhibition IC50: 35 μM mTHF, 1 mM NADP+, 27 °C, pH 7.3; for FolD inhibition Ki: data fitted to a competitive model; for increase of the inhibitory potency compared to that of compound 2: TbFolD, from Ki
Method: The dehydrogenase activity of FolD was measured spectrophotometrically, using a Beckman DU-640 spectrophotometer, following the formation of 5,10-CH=THF from 5,10-CH2-THF. 5,10-CH2-THF dehydrogenase assays were carried out in a 0.5 mL volume at 27 °C and contained 25 mM MOPS, pH 7.3, 30 mM 2-mercaptoethanol, 35 μM mTHF, and 1 mM NADP^+. The Km values of substrate and cofactor having been previously elucidated as approximately 35 and 70 μM. The reaction was initiated by the addition of NADP^+ and incubated for 5 min then stopped by the addition of an equal volume of 1 M HCl and the 5,10-CH=THF produced quantified at 350 nm, using an extinction coefficient of 24.9 mM^–1 cm^–1. The enzyme activity was expressed as μ moles 5,10-CH=THF produced per minute. Enzyme inhibition was measured using the dehydrogenase assay, with stocks of compounds dissolved in DMSO (10 mM). The concentration of compound in the first test was 0–50–100 μM. Data from inhibition assays were fitted to a competitive model by linear regression using Origin (OriginLab Corporation). […]
with 50 mM bicine, 250 mM NaCl, 0.5 mM DTT, 10 % glycerol pH 8.0. The typical yield of protein was approximately 7 mg/L of cell culture. The addition of 10% glycerol in all buffers was required to prevent loss of activity when the samples were flashyfrozen.
The dehydrogenase activity of FolD was measured spectrophotometrically, using a Beckman DUy 640 spectrophotometer, following either the formation of 5,10yCH=THF from 5,10yCH2yTHF (DH activity). 5,10yCH2yTHF dehydrogenase assays were carried out in a 0.5 mL volume at 27 °C and contained 25 mM MOPS, pH 7.3, 30 mM 2ymercaptoethanol 35 µM mTHF, 1 mM NADP+. The reaction was initiated by addition of NADP+ and incubated for 5 minutes then stopped by the addition of an equal volume of 1 M HCl and the 5,10yCH=THF produced quantified at 350 nm, using a extinction coefficient of 24.9 mM−1 cm−1. DH activity was expressed as µ moles 5,10y CH=THF produced per minute. Enzyme inhibition was measured using the dehydrogenase assay, with stocks of compounds dissolved in DMSO (10 mM). The concentration of compound in the first test was 0y50y100 µM. Data from inhibition assays were fitted to competitive model by linear […]
The bloodstreamyform T. brucei brucei strain 427 was grown in HMIy9 medium – 17.66 mg/mL IMDM (Gibco), 3.020 mg/mL sodium bicarbonate (SigmayAldrich), 0.136 mg/mL hypoxanthine (SigmayAldrich), 0.039 mg/mL thymidine (SigmayAldrich) and 0.028 mg/mL bathocuproine sulfonic acid (SigmayAldrich) y supplemented with 10% heatyinactivated fetal bovine serum (FBS) (BioWhittaker), 1.5 mM Lycysteine hydrochloride monohydrate (Merck), 0.2 mM βy mercaptoethanol (SigmayAldrich), 100 U/mL penicillin and 100 U/mL streptomycin (BioWhittaker) at 37 °C under a humidified 5% CO2 atmosphere. Cultures were grown in T25 or T75 vented cap culture flasks (Sarstedt) and subycultured every 2y3 days by 100 to 1000yfold dilution, respectively.
Parasites were counted directly using a Neubauer chamber (Marienfeld) and diluted appropriately in […]
In vitro growth inhibition assays

human FolD = target: human FolD; design: method as in PMID 22108435, PMID 23050773; conditions: competitive inhibitor; cited from earlier work
[1] = target: Pseudomonas aeruginosa FolD; design: method as in PMID 22108435, PMID 23050773; conditions: competitive inhibitor; cited from earlier work
L. major FolD = target: L. major FolD; design: method as in PMID 22108435, PMID 23050773; conditions: competitive inhibitor; cited from earlier work
[2] = Solubility in organic solvents (crystallization trials); type: physicochemical; conditions: room temperature, with the exception of DMSO
Text: We therefore tried to grow crystals from DMSO (in different conditions) and from mixtures of DMSO/CH3CN. Eventually, crystallization by slow evaporation (16 days) of a solution of 3 in reagent-grade DMSO (Sigma-Aldrich) at room temperature produced small plates suitable for the determination of the molecular connectivity. After testing several samples, a specimen (0.25 × 0.20 × 0.05 mm^3) grown at the liquor/air interface was selected for the crystallographic analysis. The specimen manifested a significant pleochroism (colorless to violet) under polarized light. It was mounted on the top of a glass capillary fiber in dense perfluorinated oil. The X-ray data collection was performed at room temperature on a 3-circle Bruker SMART APEX goniometer equipped with a CCD APEX-II detector, using graphite-monochromated Mo Kα radiation (λ = 0.71073 Å). A total of 26180 reflections (8144 unique) were recorded up to (sin ϑ/λ)MAX = 0.5017 Å^–1. A high exposure time (120 s/frame) was employed due to the small dimensions of the sample and its very low scattering power.

[3] = target: Trypanosoma brucei N5,N10-methylenetetrahydrofolate dehydrogenase/cyclohydrolase (FolD) (Trypanosoma brucei (Lister 927 strain)); test: SEC; size exclusion chromatography (gel filtration) of recombinant TbFolD in solution; conditions not given in the main text
[4] = test system: THP1 differentiated macrophages; test: Cytotoxicity, colorimetric MTT assay; type: cell-based; conditions: human THP1 differentiated macrophages, 72 h, read-out: THP1 in vitro growth inhibition IC50
Method: The cytotoxicity of the compounds under study was assessed by a colorimetric MTT assay.[26],[27] THP1 differentiated macrophages were seeded at a density of 10^5 cells/well in 96-well plates and allowed to adhere overnight. Cells were incubated with the compound concentration range for 72 h at 37 °C. At the end of the incubation period, 200 μL of 0.5 mg/mL MTT reagent (thiazolyl blue tetrazolium bromide, Sigma) solution was added to each well. The plates were further incubated for 4 h at 37 °C in the dark. The culture medium was subsequently discarded, and 200 μL of isopropanol was added to dissolve the dark-blue formazan crystals. Cell viability was quantified spectrophotometrically by measuring the absorbance of the formazan product at wavelength 570 nm and the background at 660 nm with a microplate reader (Synergy 2, Biotek, USA). The data are expressed as the percentages of viable cells compared to the survival of a control group (untreated cells). […]
additional 4 h and then the fluorescence read in a microplate reader (Sinergy 2, BioTek) using an […]
calculated by linear regression.
The cytotoxicity of the compounds under study was assessed by a colorimetric MTT assay. […]
added to dissolve the darkyblue formazan crystals. Cell viability was quantified
spectrophotometrically by measuring the absorbance of the formazan product at the wavelength of […]

Row | Compound | FolD inhibition IC50 (TbFolD) | FolD inhibition Ki (TbFolD) | other results
1 | Nc1nc(N)c(NC(=O)Nc2ccc(C(=O)NCCCC(=O)O)cc2)c(=O)[nH]1 [Compound 20, 4-(4-(3-(2,4-Diamino-6-hydroxypyrimidin-5-yl)ureido)benzamido)butanoic Acid] | 213000 ± 18000 nM | 168000 ± 8500 nM | 
2 | Nc1nc(N)c(NC(=O)Nc2ccc(C(=O)N[C@@H](Cc3ccccc3)C(=O)O)cc2)c(=O)[nH]1 [Compound 18, (S)-2-(4-(3-(2,4-Diamino-6-hydroxypyrimidin-5-yl)ureido)benzamido)-3-phenylpropanoic Acid] | 1100 ± 250 nM | 540 nM and 540 ± 80 nM | increase of the inhibitory potency compared to that of compound 2 (TbFolD): 2 fold
3 | Nc1nc2c(c(=O)[nH]1)N1C(=O)N(c3ccc(C(=O)NC(CCC(=O)O)C(=O)O)cc3)CC1CN2 (stereo not shown) [Compound 21, reference compound] | 20000 ± 1200 nM | 8500 nM and 8500 ± 500 nM | Ki human FolD (human FolD): 29 nM; Ki Pseudomonas aeruginosa FolD [1]: 30 nM; Ki L. major FolD (L. major FolD): 105 nM
4 | C[C@H](NC(=O)c1ccc(NC(=O)Nc2c(N)nc(N)[nH]c2=O)cc1)C(=O)O [Compound 17, (S)-2-(4-(3-(2,4-Diamino-6-hydroxypyrimidin-5-yl)ureido)benzamido)propanoic Acid] | 6300 ± 800 nM | 3200 ± 300 nM | 
5 | Nc1nc(N)c(NC(=O)Nc2ccc(C(=O)N[C@@H](Cc3ccc(O)cc3)C(=O)O)cc2)c(=O)[nH]1 [Compound 19, (S)-2-(4-(3-(2,4-Diamino-6-hydroxypyrimidin-5-yl)ureido)benzamido)-3-(4-hydroxyphenyl)propanoic Acid] | 9300 ± 900 nM | 7300 ± 700 nM | 
6 | CCOC(=O)c1ccc(NC(=O)Nc2c(N)nc(N)[nH]c2=O)cc1 [Compound 3, Ethyl 4-(3-(2,4-diamino-6-oxo-1,6-dihydropyrimidin-5-yl)ureido)benzoate] |  |  | solubility in most organic solvents [2]: poorly soluble
7 | Trypanosoma brucei N5,N10-methylenetetrahydrofolate dehydrogenase/cyclohydrolase (FolD) (enzyme) |  |  | stoichiometry N [3]: 2
8 | (S)-2-(4-(3-(2,4-diamino-6-hydroxypyrimidin-5-yl)ureido)benzamido)hexanedioic Acid [Compound 16] | 1000 ± 300 nM | 480 nM and 480 ± 700 nM | increase of the inhibitory potency compared to that of compound 2 (TbFolD): 2 fold; IC50 [4]: 90000 ± 16000 nM
9 | Nc1nc(N)c(NC(=O)Nc2ccc(C(=O)N[C@@H](CCC(=O)O)C(=O)O)cc2)c(=O)[nH]1 [Compound 2, (S)-2-(4-(3-(2,4-Diamino-6-oxo-1,6-dihydropyrimidin-5-yl)ureido)benzamido)pentanedioic Acid] | 2200 nM and 2200 ± 500 nM | 1100 nM and 1100 ± 800 nM | 
